Results reported in patent US4704403A, “3-(2,2,2-trisubstituted hydrazinium) propionates” (priority 1983, dated 1987).

What was measured:
[1] = Acute toxicity upon intraperitoneal administration to white mice; type: in vivo; conditions: mouse, in vivo, ip, 14 days observation, average values with confidential limits at P=0.05
Method: (§1) The acute toxicity of the compounds according to the present invention was studied on white mice of both sexes with a mass of 20-25 g. A saturated aqueous solution of the compounds or a suspension in Tween-80 was administered to the animals intraperitoneally. The observation over the animals was carried out for 14 days. The results obtained were processed following the Litchfield-Wilkoxon method. As it follows from the data shown in Table 5 hereinbelow, the studied compounds have a very low acute toxicity, thus providing a large spectrum of the therapeutic effect.

[2] = test system: white mice; assay: as above; type: in vivo; conditions: i.p.
Method: as §1

[3] = test system: arrhythmia caused by introduction of calcium chloride; assay: Antiarrhythmic activity on the model of arrhythmia caused by calcium chloride (antagonism towards calcium); type: in vivo, mice; conditions: for Dose of calcium chloride causing arrhythmia: control 85.0; for Dose of calcium chloride causing heart arrest: control 100.0
Method: In experiments on white mice with a mass of 18-25 g narcotized with urethane an electrocardiogram was recorded in the second standard lead. A 2% solution of calcium chloride was introduced into the tail vein at a constant rate (0.01 ml for 2 seconds). The dose of calcium chloride causing arrhythmia and the dose causing heart arrest were determined. In experimental groups the test compounds were administered 20-40 minutes prior to the beginning of the experiment intraperitoneally.

[4] = test system: hypertensive male rats of the Akamoto-Aoki line; assay: Variation of arterial pressure upon intraperitoneal administration to hypertensive rats; type: in vivo
Method: The study of hypotensive properties of the compounds of this invention has been carried out of hypertensive male rats of the Akamoto-Aoki line aged 25-30 weeks. The animals were divided into groups (7-10 rats in each) and for 2 weeks before the beginning of the experiment they were subjected to an every-day training for adaptation to the unit for measurements of the arterial pressure. The systolic and diastolic arterial pressure were measured indirectly on the tail artery. The level of the arterial pressure prior to administration of the test compounds was measured by way of a triple determination thereof--2 days, one day and right before the administration of the preparation. The compounds were administered intraperitoneally in the form of a 2.5% aqueous solution or a 2.5% suspension in Twin-80 in the dose of 50 mg/kg. The measurement of the arterial pressure was effected 30 minutes, 1, 2, 3 and 4 hours and in some cases 24 hours after the administration of the preparation. For a number of compounds featuring a high efficiency, also determined was the dose causing reduction of the arterial pressure by 30% as compared with the starting level (ED30). The statistical processing of the data obtained was carried out using the Student certainty criterion.

[5] = test system: spontaneously hypertensive rats of the Akamoto-Aoki line; assay: Systolic arterial pressure of spontaneously hypertensive rats upon a repeated peroral administration; type: in vivo
Method: Thus, after a four-days course of administration (once a day, per os) of the compounds according to the present invention an essential reduction of the arterial pressure in the test animals is observed which is not returned to the initial level even an expiration of four days after discontinuation of the preparation administration, whereas the hypotensive effect of nifedipine is manifested for only 8 hours.

[6] = 30 minutes, 50 mg/kg i.p. (nifedipine 1 mg/kg i.p.)
[7] = 1 hour, 50 mg/kg i.p. (nifedipine 1 mg/kg i.p.)
[8] = 2 hours, 50 mg/kg i.p. (nifedipine 1 mg/kg i.p.)
[9] = 4 hours, 50 mg/kg i.p. (nifedipine 1 mg/kg i.p.)
[10] = after four-days p.o. course, benzyl 40 mg/kg, allyl 50 mg/kg, nifedipine dose not given
[11] = p.o. once a day, benzyl 40 mg/kg, allyl 50 mg/kg, nifedipine dose not given
[12] = p.o., benzyl 40 mg/kg, allyl 50 mg/kg, nifedipine dose not given

| SMILES | LD50 at 336 h [1] | Relative toxicity with respect to quinidine (LD50 / LD50 of quinidine) [2] | Dose of calcium chloride causing arrhythmia ([3]; compound dose 5 mg/kg i.p.) | Dose of calcium chloride causing heart arrest ([3]; compound dose 5 mg/kg i.p.) | Dose of calcium chloride causing arrhythmia ([3]; compound dose 15 mg/kg i.p.) | Dose of calcium chloride causing heart arrest ([3]; compound dose 15 mg/kg i.p.) | Average variation of the diastolic arterial pressure [4, 6] | Average variation of the systolic arterial pressure [4, 6] | Average variation of the diastolic arterial pressure [4, 7] | Average variation of the systolic arterial pressure [4, 7] | Average variation of the diastolic arterial pressure [4, 8] | Average variation of the systolic arterial pressure [4, 8] | Average variation of the diastolic arterial pressure [4, 9] | Average variation of the systolic arterial pressure [4, 9] | also measured |
| --- | --- | --- | --- | --- | --- | --- | --- | --- | --- | --- | --- | --- | --- | --- | --- |
| CC[N+](CC)(CC)NCCC(=O)[O-] [3-(2,2,2-Triethylhydrazinium)propionate, 3-(2,2,2-triethylhydrazinium)propionate monohydrate] | > 3000 mg/kg | above 19.2 | 100.0 | 120.0 | 127.0 | 142.5 | – | – | – | – | – | – | – | – | – |
| C[N+](C)(CC[N+](C)(C)NCCC(=O)[O-])NCCC(=O)[O-] [3-(2,2-dimethyl-2-[1',1'-dimethyl-2'-carboxylatoethylhydrazin-1'-ium]-ethylhydrazinium)propionate dihydrate] | 2100 mg/kg | 13.4 | 96.0 | 112.0 | 108.5 | 120.0 | – | – | – | – | – | – | – | – | – |
| C[N+](C)(Cc1cccc2ccccc12)NCCC(=O)[O-] [3-(2,2-dimethyl-2-naphthylmethylhydrazinium)propionate] | > 3000 mg/kg | above 19.2 | 108.0 | 132.5 | 126.7 | 143.0 | 0 % of the initial | 0 % of the initial | -3 % of the initial | 0 % of the initial | -2 % of the initial | -3 % of the initial | -14 % of the initial | -5 % of the initial | Average variation of the diastolic arterial pressure ([4]; 24 hours, 50 mg/kg i.p.): -7 % of the initial; Average variation of the systolic arterial pressure ([4]; 24 hours, 50 mg/kg i.p.): -4 % of the initial |
| C#CC[N+](C)(C)NCCC(=O)[O-] [3-(2,2-dimethyl-2-propargylhydrazinium)propionate hydrogen bromide] | 1650 mg/kg | 10.5 | 110.4 | 125.0 | 120.0 | 135.0 | -17 % of the initial | -6 % of the initial | -16 % of the initial | -10 % of the initial | -7 % of the initial | -10 % of the initial | -10 % of the initial | -6 % of the initial | – |
| CCC[N+](C)(C)NCCC(=O)[O-] [3-(2,2-dimethyl-2-propylhydrazinium)propionate] | 1800 mg/kg | 11.5 | 112.5 | 123.0 | 125.3 | 140.5 | – | – | – | – | – | – | – | – | – |
| CC[N+](C)(CC)NCCC(=O)[O-] [3-(2-methyl-2,2-diethylhydrazinium)propionate monohydrate] | 1450 mg/kg | 9.3 | 105.5 | 118.6 | 120.0 | 136.0 | +10 % of the initial | +4 % of the initial | -4 % of the initial | +2 % of the initial | +1 % of the initial | 0 % of the initial | -8 % of the initial | -6 % of the initial | – |
| COC(=O)C1=C(C)NC(C)=C(C(=O)OC)C1c1ccccc1[N+](=O)[O-] [Nifedipine, reference compound] | – | – | – | – | – | – | -8 % of the initial | -4 % of the initial | -14 % of the initial | -12 % of the initial | -21 % of the initial | -8 % of the initial | -31 % of the initial | -11 % of the initial | Systolic arterial pressure, 5th day [5, 10]: 178 mm Hg; Systolic arterial pressure, 8th day [5, 10]: 186 mm Hg; Systolic arterial pressure, 10th day [5, 10]: 182 mm Hg; Systolic arterial pressure, 2nd day after administration ([5]; p.o. once a day, allyl 50 mg/kg, nifedipine dose not given): 148 mm Hg; Systolic arterial pressure, 1st day after administration ([5]; p.o. once a day, benzyl 40 mg/kg (initial 195.8), allyl 50 mg/kg (initial 176.6), nifedipine dose not given (initial 184.0)): 150.0 mm Hg; Systolic arterial pressure, 2nd day before administration [5, 11]: 186 mm Hg; Systolic arterial pressure, 3rd day after administration [5, 11]: 153 mm Hg; Systolic arterial pressure, 4th day after administration [5, 11]: 146 mm Hg; Systolic arterial pressure, 4th day before administration [5, 11]: 180 mm Hg; Systolic arterial pressure, 3rd day before administration ([5]; p.o. once a day, benzyl 40 mg/kg, nifedipine dose not given): 183 mm Hg; Percent in parentheses (change of systolic pressure from initial), 2nd day after administration ([5]; p.o., allyl 50 mg/kg, nifedipine dose not given): 20%; Percent in parentheses (change of systolic pressure from initial), 1st day after administration [5, 12]: 18%; Percent in parentheses (change of systolic pressure from initial), 3rd day after administration [5, 12]: 17%; Percent in parentheses (change of systolic pressure from initial), 4th day after administration [5, 12]: 21%; Percent in parentheses (change of systolic pressure from initial), 4th day before administration [5, 12]: 2%; Percent in parentheses (change of systolic pressure from initial), 5th day [5, 12]: 3%; duration of hypotensive effect ([5]; repeated p.o.): 8 h |
| C=C[C@H]1C[N@@]2CC[C@H]1C[C@@H]2[C@@H](O)c1ccnc2ccc(OC)cc12 [Quinidine, reference compound] | 156 mg/kg | 1 | – | – | – | – | – | – | – | – | – | – | – | – | Dose of calcium chloride causing arrhythmia ([3]; compound dose 3 mg/kg i.p.): 126.9; Dose of calcium chloride causing heart arrest ([3]; compound dose 3 mg/kg i.p.): 136.0; Dose of calcium chloride causing arrhythmia ([3]; compound dose 10 mg/kg i.p.): 120.8; Dose of calcium chloride causing heart arrest ([3]; compound dose 10 mg/kg i.p.): 133.5 |
